Reference: patent publication US5466671A, “Apidaecin-type peptide antibiotics with improved activities and/or different antibacterial spectrum” (priority 1994, dated 1995)
Residues, ends and D or L forms follow the SMILES beside them.

What was measured:
[1] = system: Escherichia coli (ATCC11775); assay: Inhibition zone assay (agar plate); type: cell-based; conditions: for inhibition zone diameter (number of plus signs): agar plate, 50 nanomoles/well, 3 mm wells
[2] = system: Enterobacter cloacae; assay: Inhibition zone assay (agar plate); type: cell-based; conditions: for inhibition zone diameter (number of plus signs): agar plate, 50 nanomoles/well, 3 mm wells
[3] = system: Erwinia amylovora; assay: Inhibition zone assay (agar plate); type: cell-based; conditions: for inhibition zone diameter (number of plus signs): agar plate, 50 nanomoles/well, 3 mm wells
[4] = system: Klebsiella pneumoniae; assay: Inhibition zone assay (agar plate); type: cell-based; conditions: for inhibition zone diameter (number of plus signs): agar plate, 50 nanomoles/well, 3 mm wells
[5] = system: Salmonella typhimurium; assay: Inhibition zone assay (agar plate); type: cell-based; conditions: for inhibition zone diameter (number of plus signs): agar plate, 50 nanomoles/well, 3 mm wells
[6] = system: Shigella dysenteriae; type: cell-based
[7] = system: Yersinia enterocolitica; assay: Inhibition zone assay (agar plate); type: cell-based; conditions: 50 nanomoles/well, 3 mm wells
[8] = system: Acinetobacter calcoaceticus; assay: Inhibition zone assay (agar plate); type: cell-based; conditions: for inhibition zone diameter (number of plus signs): agar plate, 50 nanomoles/well, 3 mm wells
[9] = system: Agrobacterium tumefaciens; assay: Inhibition zone assay (agar plate); type: cell-based; conditions: for inhibition zone diameter (number of plus signs): agar plate, 50 nanomoles/well, 3 mm wells
[10] = system: Legionella pneumophila; type: cell-based; conditions: agar plate, 50 nanomoles/well, 3 mm wells
[11] = system: Pseudomonas syringae; assay: Inhibition zone assay (agar plate); type: cell-based; conditions: for inhibition zone diameter (number of plus signs): agar plate, 50 nanomoles/well, 3 mm wells
[12] = system: Rhizobium meliloti; assay: Inhibition zone assay (agar plate); type: cell-based; conditions: 50 nanomoles/well, 3 mm wells
[13] = system: Haemophilus influenzae; assay: Inhibition zone assay (agar plate); type: cell-based; conditions: 50 nanomoles/well, 3 mm wells
[14] = system: E. coli Apid^R; assay: Minimal inhibitory concentration (liquid culture); type: cell-based; conditions: a-b = highest concentration with growth - lowest without growth
From the text: For details see `Experimental Procedures`.

[15] = system: E. coli 11775; assay: Minimal inhibitory concentration (liquid culture); conditions: for minimal inhibitory concentration (MIC): a-b = highest concentration with growth - lowest without growth
[16] = system: E. coli 23802; assay: Minimal inhibitory concentration (liquid culture); conditions: inoculum 5000 CFU/ml; a-b = highest concentration with growth - lowest without growth
[17] = system: E. coli 25922; assay: Minimal inhibitory concentration (liquid culture); conditions: inoculum 1100 CFU/ml; a-b = highest concentration with growth - lowest without growth
[18] = system: S. typhimurium; assay: Minimal inhibitory concentration (liquid culture); conditions: inoculum 8 × 10^6 CFU/ml; a-b = highest concentration with growth - lowest without growth
[19] = system: A. calcoaceticus; assay: Minimal inhibitory concentration (liquid culture); conditions: inoculum 16 × 10^6 CFU/ml; a-b = highest concentration with growth - lowest without growth
[20] = system: M. morganii; assay: Minimal inhibitory concentration (liquid culture); conditions: inoculum 400 CFU/ml; a-b = highest concentration with growth - lowest without growth
[21] = system: Y. enterocolitica; assay: Minimal inhibitory concentration (liquid culture); conditions: inoculum 5000 CFU/ml; a-b = highest concentration with growth - lowest without growth
[22] = system: Morganella morganii; assay: Inhibition zone assay (agar plate); type: cell-based; conditions: 50 nanomoles/well, 3 mm wells
[23] = system: Salmonella typhi; type: cell-based; conditions: 50 nanomoles per well (3 mm diameter)
[24] = system: E. coli D22; type: cell-based; conditions: 50 nanomoles per well (3 mm diameter)
[25] = 50 nanomoles per well (3 mm diameter)

Compound	inhibition zone diameter (number of plus signs) [1]	inhibition zone diameter (number of plus signs) [2]	inhibition zone diameter (number of plus signs) [3]	inhibition zone diameter (number of plus signs) [4]	inhibition zone diameter (number of plus signs) [5]	inhibition zone diameter (number of plus signs) [7]	inhibition zone diameter (number of plus signs) [8]	inhibition zone diameter (number of plus signs) [9]	inhibition zone diameter (number of plus signs) [11]	inhibition zone diameter (number of plus signs) [12]	inhibition zone diameter (number of plus signs) [13]	minimal inhibitory concentration (MIC) ([14]; inoculum 1000 CFU/ml) [µg/mL]	minimal inhibitory concentration (MIC) ([15]; inoculum 16 × 10^6 CFU/ml) [µg/mL]	minimal inhibitory concentration (MIC) ([15]; inoculum 1200 CFU/ml) [µg/mL]	minimal inhibitory concentration (MIC) [16] [µg/mL]	minimal inhibitory concentration (MIC) [17] [µg/mL]	minimal inhibitory concentration (MIC) [18] [µg/mL]	minimal inhibitory concentration (MIC) [19] [µg/mL]	minimal inhibitory concentration (MIC) [20] [µg/mL]	minimal inhibitory concentration (MIC) [21] [µg/mL]	other results
CC[C@H](C)[C@H](NC(=O)[C@H](Cc1ccc(O)cc1)NC(=O)[C@@H](NC(=O)[C@@H]1CCCN1C(=O)[C@H](CCCNC(=N)N)NC(=O)[C@H](CC(N)=O)NC(=O)[C@H](C)N)C(C)C)C(=O)N1CCC[C@H]1C(=O)N1CCC[C@H]1C(=O)N1CCC[C@H]1C(=O)N[C@@H](CCCNC(=N)N)C(=O)N1CCC[C@H]1C(=O)N1CCC[C@H]1C(=O)N[C@@H](Cc1c[nH]cn1)C(=O)N1CCC[C@H]1C(=O)N[C@@H](CCCNC(=N)N)C(=O)N[C@@H](CC(C)C)C(=O)O [Bb+A] (H-ANRPVYIPPPRPPHPRL-OH)	++++ ((++++) 15-19 mm)	+++ ((+++) 10-14 mm)	++++ ((++++) 15-19 mm)	++ ((++) 7-9 mm)	+++ ((+++) 10-14 mm)	+++ ((+++) 10-14 mm)	++ ((++) 7-9 mm)	++++ ((++++) 15-19 mm)	+++++ ((+++++) 20 or more min)	++++ ((++++) 15-19 mm)	+++ ((+++) 10-14 mm)	> 40	0.5 to 1	0.05 to 0.1	10 to 20	0.5 to 1	0.5 to 1	2 to 10	20 to 40	5 to 10	inhibition zone diameter (number of plus signs) ([6]; agar plate, 50 nanomoles/well, 3 mm wells): + +++; inhibition zone diameter (number of plus signs) [10]: ++ ((++) 7-9 mm); minimal inhibitory concentration (MIC) ([14]; inoculum 12 × 10^6 CFU/ml): > 40 µg/mL
CC(C)C[C@H](NC(=O)[C@H](CCCNC(=N)N)NC(=O)[C@@H]1CCCN1C(=O)[C@H](Cc1c[nH]cn1)NC(=O)[C@@H]1CCCN1C(=O)[C@@H]1CCCN1C(=O)[C@H](CCCNC(=N)N)NC(=O)[C@@H]1CCCN1C(=O)[C@@H]1CCCN1C(=O)[C@@H](NC(=O)[C@H](CCC(N)=O)NC(=O)[C@H](CCC(N)=O)NC(=O)[C@@H]1CCCN1C(=O)[C@H](CCCNC(=N)N)NC(=O)[C@@H]1CCCN1C(=O)[C@H](CCCCN)NC(=O)CN)C(C)C)C(=O)O [Ho +, G K P R P Q Q V P P R P P H P R L] (H-GKPRPQQVPPRPPHPRL-OH)	+++ ((+++) 10-14 mm)	+++ ((+++) 10-14 mm)	+++ ((+++) 10-14 mm)	+++ ((+++) 10-14 mm)	+++ ((+++) 10-14 mm)	++++ ((++++) 15-19 mm)	+ ((+) 5-6 mm)	++ ((++) 7-9 mm)	+++ ((+++) 10-14 mm)	++++ ((++++) 15-19 mm)	+++ ((+++) 10-14 mm)	1 to 5	0.1 to 0.5	0.1 to 0.5	0.5 to 1	0.1 to 0.5	0.5 to 1	2 to 10	1 to 5	1 to 5	Inhibition zones: in mm diameter [1, 25]: 15 mm; Inhibition zones: in mm diameter [2, 25]: 15 mm; Inhibition zones: in mm diameter [3, 25]: 12 mm; Inhibition zones: in mm diameter [4, 25]: 15 mm; inhibition zone diameter (number of plus signs) [22]: ++ ((++) 7-9 mm); Inhibition zones: in mm diameter [5, 25]: 14 mm; Inhibition zones: in mm diameter [23]: 20 mm; Inhibition zones: in mm diameter [6, 25]: 18 mm; Inhibition zones: in mm diameter [8, 25]: 5 mm; Inhibition zones: in mm diameter [9, 25]: 12 mm; Inhibition zones: in mm diameter [11, 25]: 13 mm; Inhibition zones: in mm diameter [24]: 14 mm; inoculum effect on inhibition of viability ([15]; inoculum sizes differing by four orders of magnitude): equally well
CC[C@H](C)[C@H](NC(=O)[C@H](Cc1ccc(O)cc1)NC(=O)[C@@H](NC(=O)[C@@H]1CCCN1C(=O)[C@H](CCCNC(=N)N)NC(=O)[C@@H](N)CC(N)=O)C(C)C)C(=O)N1CCC[C@H]1C(=O)N1CCC[C@H]1C(=O)N1CCC[C@H]1C(=O)N[C@@H](CCCNC(=N)N)C(=O)N1CCC[C@H]1C(=O)N1CCC[C@H]1C(=O)N[C@@H](Cc1c[nH]cn1)C(=O)N1CCC[C@H]1C(=O)N[C@@H](CCCNC(=N)N)C(=O)N[C@@H](CC(C)C)C(=O)O [Bb-A] (H-NRPVYIPPPRPPHPRL-OH)	++++ ((++++) 15-19 mm)	+++ ((+++) 10-14 mm)	++++ ((++++) 15-19 mm)	++ ((++) 7-9 mm)	+++ ((+++) 10-14 mm)	+++ ((+++) 10-14 mm)	++ ((++) 7-9 mm)	++++ ((++++) 15-19 mm)	++++ ((++++) 15-19 mm)	+++++ ((+++++) 20 or more min)	++ ((++) 7-9 mm)	> 40	1 to 5	0.1 to 0.5	10 to 20	1 to 5	0.5 to 1	> 20	> 40	1 to 5	inhibition zone diameter (number of plus signs) [10]: + ((+) 5-6 mm); minimal inhibitory concentration (MIC) ([14]; inoculum 12 × 10^6 CFU/ml): > 40 µg/mL
